The values below come from patent US20060122189A1, “Phenylpiperazine derivatives with a combination of partial dopamine-D2 receptor agonism and serotonin reuptake inhibition” (priority 2004, published 2006).

One data set has as its target T1, serotonin reuptake sites (Rattus norvegicus, UniProt P31652).
T1 construct: from tissue
The experiment in a line: In vitro affinity for serotonin reuptake sites ([3H]-paroxetine binding). The following applies: read-out: 5-HT reuptake binding pKi (converted). On the procedure:
In Vitro Affinity for Serotonin Reuptake Sites
Affinity of the compounds for serotonin reuptake sites was determined using the receptor binding assay described by E. Habert et al.,: “Characterisation of [^3H]-paroxetine binding to rat cortical membranes”, Eur. J. Pharmacol., 118, 107-114, 1985.

Data set [1] concerns the target T2, Human dopamine D2,L receptors (Homo sapiens, UniProt P14416).
T2 construct: host or cells: CHO-K1
Put plainly: Inhibition of forskolin-induced [3H]-cAMP accumulation in CHO-K1 cells. The class given is cell-based. The following applies: cloned human dopamine D2,L receptors; full agonist ε=1, full antagonist ε=0. The procedure: Inhibition of Forskolin-Induced [^3H]-cAMP Accumulation
The in vitro functional activity at dopamine-D2 receptors, including the intrinsic activity (E) of the compounds of the invention was measured by their ability to inhibit forskolin-induced [^3H]-cAMP accumulation.
Human dopamine D2,L receptors were cloned in fibroblast cell line CHO-K1′ cells and obtained from Dr. Grandy, Vollum Institute, Portland, Oreg., USA. CHO cells were grown in a Dulbecco's modified Eagle's medium (DMEM) culture medium, supplemented with 10% heat-inactivated fetal calf serum, 2 mM glutamine, 1 mM pyruvate, 5000 units/ml penicillin, 5000 μg/ml streptomycin and 200 μg/ml G-418 at 37° C. in 93% air/7% CO2. For incubation with test compounds, confluent cultures grown in 24 wells plates were used. Each condition or substance was routinely tested in quadruplicate. Cells were loaded with 1 μCi [^3H]-adenine in 0.5 ml medium/well. After 2 hours, cultures were washed with 0.5 ml PBS containing 1 mM of the phosphodiesterase inhibitor isobutylmethylxanthine (IBMX) and incubated for 20 min with 0.5 ml PBS containing 1 mM IBMX and forskolin with or without test compound. After aspiration the reaction was stopped with 1 ml trichloroacetic acid 5% (w/v). […] 0.8 ml Extract was passed over Dowex (50WX-4 200-400 mesh) and aluminumoxide columns, eluted with water and 0.1M imidazole (pH=7.5). Eluates were mixed with 7 ml Insta-gel and radioactivity was counted with a liquid scintillation counter. The conversion of [^3H]-ATP into [^3H]-cAMP was expressed as the ratio in percentage radioactivity in the cAMP fraction as compared to combined radioactivity in both cAMP and ATP fractions, and basal activity was subtracted to correct for spontaneous activity.
Test compounds were obtained as 10 mM stock solutions in 100% DMSO, and diluted in PBS/IBMX to final concentrations. Typically, compounds were used in concentrations that ranged from 10^−10M to 10^−5M. From quadruplicate data counts, the mean was taken as an estimate for drug-induced, receptor-mediated effects at specified second messenger accumulation, expressed as percentage of control values (forskolin-stimulated cAMP accumulation, subtracted by basal activity). By using the non-linear curve-fitting program INPLOT or the Excel-add-in XL-Fit, mean values were plotted against drug concentration (in molar) and a sigmoid curve (four-parameter logistic curve) was constructed. The maximal forskolin-induced stimulated conversion is taken as maximum value and the maximal inhibition (usually at drug concentrations 10^−4 M or 10^−5 M) as minimum and these values were fixed during the fitting process. Thus, concentrations of the compound, causing 50% of the maximally obtained inhibition of forskolin-induced cAMP accumulation (EC50), are averaged over several experiments and presented as mean pEC50±SEM. Antagonist potency is assessed by co-incubating cells with a fixed agonist concentration and specified antagonist concentrations. Curve fitting procedures are identical to those used for estimating EC50 values. Thus IC50 values, i.e. the concentration that is able to achieve 50% of maximal antagonism that can be achieved by this compound. IC50 values are corrected using a Cheng-Prussoff equation, correcting it for agonist concentration and EC50 values that is obtained in the same experiment. Thus, Kb=IC50/(1+[agonist]/EC50, agonist). The corresponding pA2 value is −log (Kb). Concentration-response curve fitting allows estimation of pEC50 values and of maximal achievable effect (intrinsic activity or efficacy (ε). A full receptor agonist has ε=1, a full receptor antagonist has ε=0, and a partial receptor agonist has an intermediate intrinsic activity.

T2 sequence (P14416 whole entry): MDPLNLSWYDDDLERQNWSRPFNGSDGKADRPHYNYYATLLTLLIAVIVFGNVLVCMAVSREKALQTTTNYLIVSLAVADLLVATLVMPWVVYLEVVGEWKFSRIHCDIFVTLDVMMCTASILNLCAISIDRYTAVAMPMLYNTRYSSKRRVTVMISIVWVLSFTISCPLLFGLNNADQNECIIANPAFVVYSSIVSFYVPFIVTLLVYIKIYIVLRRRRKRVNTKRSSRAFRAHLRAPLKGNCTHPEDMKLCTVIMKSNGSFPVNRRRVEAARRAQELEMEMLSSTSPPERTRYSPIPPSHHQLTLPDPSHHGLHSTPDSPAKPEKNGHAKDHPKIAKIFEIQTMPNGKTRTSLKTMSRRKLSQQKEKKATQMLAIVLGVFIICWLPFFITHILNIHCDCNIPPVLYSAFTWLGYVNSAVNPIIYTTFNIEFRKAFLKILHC
T1 sequence (P31652 whole entry): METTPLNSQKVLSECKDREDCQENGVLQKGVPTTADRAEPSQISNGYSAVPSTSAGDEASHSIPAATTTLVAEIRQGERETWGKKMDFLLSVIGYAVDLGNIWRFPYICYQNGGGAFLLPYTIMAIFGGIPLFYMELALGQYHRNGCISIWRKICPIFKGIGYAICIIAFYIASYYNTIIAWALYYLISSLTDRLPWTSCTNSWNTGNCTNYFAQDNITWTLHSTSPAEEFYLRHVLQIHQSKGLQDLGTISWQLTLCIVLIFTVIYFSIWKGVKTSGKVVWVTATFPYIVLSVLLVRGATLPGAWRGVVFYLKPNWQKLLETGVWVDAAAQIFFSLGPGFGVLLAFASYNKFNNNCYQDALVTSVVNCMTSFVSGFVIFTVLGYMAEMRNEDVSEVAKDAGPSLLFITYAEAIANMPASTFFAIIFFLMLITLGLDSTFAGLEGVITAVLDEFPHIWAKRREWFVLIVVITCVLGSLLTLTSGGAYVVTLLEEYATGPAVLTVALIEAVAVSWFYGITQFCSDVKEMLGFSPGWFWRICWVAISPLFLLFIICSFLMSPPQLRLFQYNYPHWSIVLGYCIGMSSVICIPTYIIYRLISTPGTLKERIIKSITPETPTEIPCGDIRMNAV

With `N#Cc1ccc2occ(CCCCN3CCN(c4cccc5[nH]c(=O)oc45)CC3)c2c1` [Compound 6], the melting point (as a rule, the temperature of the solid-liquid transition) was 180 to 182 °C. In addition, on serotonin reuptake sites, the Ki was 0.158 nM. Also, in data set [1], the “Dopamine-D2 cAMP accum ε (intrinsic activity)” value (from here on “Dopamine-D2 cAMP accum ε”) is 0.85.

As to `O=c1[nH]c2cccc(N3CCN(CCCc4csc5ccc(Cl)cc45)CC3)c2o1` [Compound 7], the melting point lay within 211 to 213 °C. On serotonin reuptake sites, the Ki is 3.16 nM. Also, the “Dopamine-D2 cAMP accum ε” value in data set [1] was 0.39.

With `O=c1[nH]c2cccc(N3CCN(CCCc4csc5ccc(F)cc45)CC3)c2o1` [Compound 8], the melting point fell in the range of 193 to 195 °C. Moreover, the Ki on serotonin reuptake sites is 1.26 nM. The “Dopamine-D2 cAMP accum ε” value in data set [1] is recorded as 0.10.

Compound `O=c1[nH]c2cccc(N3CCN(CCCCn4ccc5ccc(F)cc54)CC3)c2o1` [Compound 16] registered a melting point of 143 to 145 °C. Besides, at serotonin reuptake sites, the Ki is 0.794 nM. In addition, in data set [1], the “Dopamine-D2 cAMP accum ε” value is listed as 0.73.

As for `Cn1c(=O)oc2c(N3CCN(CCCCc4csc5ccc(C#N)cc45)CC3)cccc21` [Compound 94], the melting point fell in the range of 184 to 186 °C. In addition, the Ki at serotonin reuptake sites is 3.16 nM. For the same compound, the “Dopamine-D2 cAMP accum ε” value in data set [1] was found to be 0.70.

With `Cn1c(=O)oc2c(N3CCN(CCC#Cc4ccc5ccc(F)cc5c4)CC3)cccc21` [Compound 135], the Ki at serotonin reuptake sites is 2 nM. Moreover, the “Dopamine-D2 cAMP accum ε” value in data set [1] was determined as 0.45.
